Patent publication US5079257A, “Indoloquinone compounds” (priority 1986, dated 1992)
In brackets after ≈: the same amount, converted by molar mass. Read-outs that look alike come from different tables or passages of the source.

Experiments:
L1210 cells = assay: L1210 activity (bioliquid assay), cytotoxicity; type: cell-based; details: for IC50: Mus musculus; for ID-50 L1210: 2880 min
Source text: The indoloquinones II (formula II) have been tested in respect of their cytotoxic activity against L1210 cells and R-1 cells (Rhabdomyosarcoma Cells) in a bioliquid assay at the department of oncology of the Free University of Amsterdam (Table I). In addition to this seven compounds (E.O. 1, E.O. 2, E.O. 4, E.O. 7, E.O. 9, E.O. 16 and E.O. 17) have been tested on L1210 activity in a clonogenic assay at TNO, Rijswijk. Further, the lowest active doses of the compounds E.O. 1, E.O. 2, E.O. 4 and E.O. 9 have been determined at TNO Rijswijk, according to the method described by Lamberts et al. [Oncology, 40, 301 (1983)]. (Table II). Eight indoloquinones (E.O. 1, E.O. 2, E.O. 4, E.O. 4A, E.O. 8, E.O. 9, E.O. 33 and E.O. 35) have been tested in a panel of five human tumour lines (TNO Rijswijk; Table III). From the latter group three indoloquinones (E.O. 1, E.O. 4 and E.O. 9) have been selected for a cytotoxicity study, involving five slowly growing human tumour lines (University of Freiburg; Table IV).
For this purpose, L1210 cells were grown, as suspension, in Falcon multi-wells (growth area: 9.6 cm^2) using RPMI supplemented with 15% FCS and 2-mercapto-ethanol (60 μmol) as medium. In this medium, the cells were continuously incubated with the compound to be tested at 37° C. in an atmosphere of 5% CO2 in humidified air for 48 hours. Thereupon they were counted on a Sysmex microcell counter (CC110).
(§1) The in vitro L1210 and R-1 activities of the indoloquinones (formula III), were also determined in the bioliquid assays as described above.

[1] = tested on: R-1 cells (Rhabdomyosarcoma Cells); assay: R-1 activity (bioliquid assay), cytotoxicity; type: cell-based; details: for IC50: Rhabdomyosarcoma cell
Source text: The indoloquinones II (formula II) have been tested in respect of their cytotoxic activity against L1210 cells and R-1 cells (Rhabdomyosarcoma Cells) in a bioliquid assay at the department of oncology of the Free University of Amsterdam (Table I). […] (Table II). Eight indoloquinones (E.O. 1, E.O. 2, E.O. 4, E.O. 4A, E.O. 8, E.O. 9, E.O. 33 and E.O. 35) have been tested in a panel of five human tumour lines (TNO Rijswijk; Table III).
For the determination of the R-1 activity, Rhabdomyosarcoma cells were brought into Falcon multiwells (growth area: 9.6 cm^2) (~10^6 cells per dish) containing 3 ml of Dulbecco's medium supplemented with 10% Foeto Calf Serum (FCS). […] Thereupon the drug solution was removed and the cells were covered with fresh medium. After 48 hours the cells were trypsinized and counted on a Sysmex microcell counter (CC110).
as §1

[2] = L1210, Table I, bioliquid assay, 48 hours, read-out: ID-50 L1210
[3] = Table I, bioliquid assay, read-out: ID-50 R-1

SMILES	IC50 (L1210 cells; [2]) [µg/mL]	IC50 [1, 3] [µg/mL]	also measured
CC(=O)OC/C=C/c1c(COC(C)=O)c2c(n1C)C(=O)C=C(NCCO)C2=O [E.O. 5, 3-Acetoxymethyl-5-(2-hydroxyethyl-1-amino)-1-methyl-2-[1H-indole-4,7-dione]prop-β-en-αyl acetate]	> 10	> 10	ID-50 L1210 (L1210 cells; Table VI): > 10 µg/mL; IC50 ([1]; Table VI, read-out: ID-50 R-1): > 10 µg/mL
COC1=CC(=O)c2c(c(C)c(/C=C/COC(C)=O)n2C)C1=O [E.O. 41, 5-Methoxy-1,3-dimethyl-2-[1H-indole-4,7-dione]prop-β-en-α-yl acetate]	> 10	> 10	ID-50 L1210 (L1210 cells; Table VII): > 10 µg/mL; IC50 ([1]; Table VII, read-out: ID-50 R-1): > 10 µg/mL
COC1=CC(=O)c2c(c(COC(=O)c3ccccc3)c(/C=C/COC(=O)c3ccccc3)n2C)C1=O [E.O. 36, 3-Benzoxymethyl-5-methoxy-1-methyl-2-[1H-indole-4,7-dione]prop-β-en-α-yl benzoate]	0.7 (≈ 1.44 µM)	2.6 (≈ 5.36 µM)	–
CC1=C(N2CC2)C(=O)c2c(CO)c(/C=C/CO)n(C)c2C1=O [E.O. 19, 5-Aziridino-1,6-dimethyl-3-hydroxymethyl-2-[1H-indole-4,7-dione]prop-β-en-α-ol]	–	–	IC50 (L1210 cells; L1210, 48 h, read-out: ID-50 L1210, Table VIII): 2 µg/mL (≈ 6.62 µM); IC50 ([1]; read-out: ID-50 R-1, Table I, bioliquid assay): 0.1 µg/mL (≈ 0.331 µM); IC50 ([1]; read-out: ID-50 R-1, Table VIII): 0.12 µg/mL (≈ 0.397 µM)
COCc1c2c(n(C)c1/C=C/COC(=O)NCCCl)C(=O)C=C(OC)C2=O [E.O. 10, 5-Methoxy-3-methoxymethyl-1-methyl-2-[1H-indole-4,7-dione]prop-β-en-α-yl N-[2-chloro-1-ethyl]carbamate]	> 10	> 10	ID-50 L1210 (L1210 cells; Table VII): > 10 µg/mL; ID-50 R-1 ([1]; Table VII): > 10 µg/mL
COC1=CC(=O)c2c(c(COC(C)=O)c(/C=C/CO)n2C)C1=O [E.O. 1B, 3-Acetoxymethyl-5-methoxy-1-methyl-2-[1H-indole-4,7-dione]prop-β-en-α-ol]	0.9 (≈ 2.82 µM)	0.05 (≈ 0.157 µM)	–
CC(=O)OCc1c2c(n(C)c1/C=C/CO)C(=O)C=C(NCCc1ccccn1)C2=O [E.O. 62, 3-Acetoxymethyl-1-methyl-5-[2-pyridylethyl-1-amino]-2-[1H-indole-4,7-dione]prop-β-en-α-ol]	> 10	> 10	ID-50 L1210 (L1210 cells; Table VI): > 10 µg/mL; IC50 ([1]; Table VI, read-out: ID-50 R-1): > 10 µg/mL
COC1=CC(=O)c2c(c(COC(=O)Nc3ccccc3)c(/C=C/COC(=O)Nc3ccccc3)n2C)C1=O [E.O. 38, 5-Methoxy-1-methyl-3-[N-phenylcarbamoyloxymethyl]-2-[1H-indole-4,7-dione]prop-β-en-α-yl N-phenylcarbamate]	> 10	8.5 (≈ 16.5 µM)	ID-50 L1210 (L1210 cells; Table VII): > 10 µg/mL
CCNC1=CC(=O)c2c(c(CO)c(/C=C/CO)n2C)C1=O [E.O. 56, 5-Ethylamino-3-hydroxymethyl-1-methyl-2-[1H-indole-4,7-dione]prop-β-en-α-ol]	5.1 (≈ 17.6 µM)	> 10	IC50 ([1]; Table VI, read-out: ID-50 R-1): > 10 µg/mL
CCNC1=CC(=O)c2c(c(C(=O)OC)c(/C=C/C(=O)OC)n2C)C1=O [E.O. 57, Methyl 5-ethylamino-3-methoxycarbonyl-1-methyl-2-[1H-indole-4,7-dione]acrylate]	–	–	IC50 (L1210 cells; L1210, 48 h, Table IA, para-indoloquinone diesters, read-out: ID-50 L1210): 1.4 µg/mL (≈ 4.04 µM); IC50 ([1]; Table IA, para-indoloquinone diesters, read-out: ID-50 R-1): 3.2 µg/mL (≈ 9.24 µM)
CC(=O)OC/C=C/c1c(COC(C)=O)c2c(n1C)C(=O)C=C(N1CCOCC1)C2=O [E.O. 60, 3-Acetoxymethyl-1-methyl-5-morpholino-2-[1H-indole-4,7-dione]prop-β-en-α-yl acetate]	> 10	3.3	ID-50 L1210 (L1210 cells; Table VI): > 10 µg/mL
COC1=CC(=O)c2c(c(COC(=O)NCCCl)c(/C=C/COC(=O)NCCCl)n2C)C1=O [E.O. 13, 3-(N-chloroethylcarbamoyloxymethyl)-5-methoxy-1-methyl-2-[1H-indole-4,74,7-dione]prop-β-en-α-yl N-chloroethyl carbamate]	10 (≈ 20.5 µM)	1.1 (≈ 2.25 µM)	–
Cn1c(/C=C/CO)c(CO)c2c1C(=O)C=C(Nc1ccccc1)C2=O [E.O. 15, 3-Hydroxymethyl-5-phenylamino-1-methyl-2-[1H-indole-4,7-dione]prop-β-en-α-ol]	0.7 (≈ 2.07 µM)	–	–
